Experimental data from patent US20050144659A1, “Animals and cells containing a mutated alpha2delta gene” (priority 2003, published 2005).

What was measured:
[1] = test system: R217A WT, HET and KI mice and parent strains; experiment: Vogel water-lick conflict; format: in vivo, mouse; conditions: for anxiolytic-like effect: R217A knockins
Text: Albino or C57BL/6J-Tyr were also included in the experiments for comparison purposes. Male C57BL/6J (Jackson Laboratories), and 129S6/SvEV (Taconic Farms) mice were received at 8 weeks old in quantities sufficient for each study to be completed in one experiment. Parent strains were housed one week prior to testing.
On the side of each chamber (1.5 in. above the floor) a module optical lickometer was mounted. The lickometer was used to measure licking from a drink tube attached to a water bottle mounted on the exterior of the chamber. A photo beam was piped via glass rods across a gap at the end of the drink tube. The subject's tongue breaks the beam when it drinks from the tube and each lick was automatically recorded. […] The reduced chamber space limited the animal's activity and directed behavior towards the drink tube during a 10-minute session. The front and back of the test chamber was made of clear Plexiglas. The front door was covered to reduce distractions from inside the test room. The back of the test chamber faced a wall, away from the flow of traffic in the testing room, and remained uncovered to provide the opportunity for observations. Shock was delivered between the grid floor and the drink tube using a (Coulbourn) programmable universal shocker for a duration of one second, but terminated immediately when contact between the animal and drink tube was broken.
PROCEDURE: On day one, after 24 hours of water deprivation, experimental subjects were placed in the test chambers and allowed to drink unpunished for a 10-minute training session. Mice were required to complete a 100-150 lick criteria during the training session. […] Immediately after the day one session mice were returned to their home cages and deprived of water and food for an additional 24 hours. On test day two, mice were dosed by intraperitoneal (IP) injection with vehicle or test compound. After a 60 or 120-minute absorption period mice were placed into the test chambers for a 10-minute test session. During the test, shock was delivered on a fixed ratio (FR) 10 schedule. Therefore, after every 10th lick the subject received a mild shock. […] A low number of shock episodes accepted reflects anxiety-related behavior. Standard anxiolytic drugs produce effects that allow mice to overcome the behavioral inhibition and drink despite the shock. […] All data were analyzed using a one-way ANOVA/Dunn's Method.
DRUGS: Pregabalin was dissolved in physiological saline for all experiments. The positive control diazepam was suspended in 2% cremophor in physiological saline.
C57BL/6J mice were tested at 0.4 mA, C57BL/6J-Tyr mice were tested at 0.1 mA and 129S6/SvEV mice were tested at 0.6 mA. […]

[2] = test system: R217A mutant lines and background mouse strains; experiment: Maximal electroshock procedure (MES); format: in vivo; conditions: for responsiveness to anticonvulsant effects: all background strains, mutant, heterozygous mutant and wildtype (all lines)
Description: Anticonvulsant effectiveness was determined by using an electroconvulsive seizure model as described elsewhere [White et al., 1995]. Mice had free access to food and water and were housed in a temperature and light-controlled environment (12 h on/12 h off) prior to drug administration. Electroshock in mice was delivered using corneal electrodes with varied electroshock intensity. Current was delivered (60 Hz sinusoidal current, 11 to 17 mA baseline to peak vs. 50 mA for 0.2 s) using a constant-current stimulator (Wahlquist Instruments, Salt Lake City, Utah). The intensities of current necessary to produce tonic extensor seizures for each mouse strain and mutant lines in all of the mice were determined. These currents were then used for further testing of mice with pregabalin. All dose-response testing was conducted at the previously determined time of peak drug effect. Groups of 10 mice each were give various intraperitoneal doses of pregabalin dissolved in 0.9% saline, diazepam (veh) or phenyloin and given in a volume of 10 ml/kg of body weight. ED50 values (calculated dose required to inhibit the hindlimb tonic-extensor component of the maximal electroshock seizure in 50% of the animals tested) were determined by probit analysis [Litchfield, Wilcoxon], and used to compare relative potency between compounds. At least four groups of mice and each animal was employed once. The animals, pretreated with different doses of the tested drugs, were challenged with one electroshock at previously determined times of peak drug effect (pregabalin: 120 min; diazepam: 60 min; phenyloin; 60 min).
Anticonvulsant effects of pregabalin were reduced in −/− mice as compared to the +/+mice.

[3] = test system: brain membranes from the R217A mutant mouse; experiment: 3H gabapentin binding to mouse brain membranes; conditions: R217A mutant mouse in comparison to wildtype mice; tracer 3H gabapentin; FIG. 3
Description: Membranes were prepared from whole mouse brains. […] Total binding was determined in the absence of competitor. Non-specific binding was determined in the presence of 10 μM unlabeled pregabalin.

α2/δ2 = α2/δ2 (Homo sapiens, UniProt Q9NY47); conditions: background statement; cited from earlier work
[4] = test system: R217A knock-in and wild-type mice; experiment: Chronic constriction injury (CCI)-induced static allodynia, von Frey hairs; format: in vivo, mouse; conditions: sub cutaneous 30-100 mg/kg, FIG. 8
Text: Animals were placed in an anaesthetic chamber and anaesthetised with a 2% isofluorane O2 mixture. The right hind thigh is shaved and swabbed with 1% iodine. Animals were then transferred to a homeothermic blanket for the duration of the procedure and anaesthesia maintained during surgery via a nose cone. The skin was cut along the line of the thigh bone. The common sciatic nerve was exposed at the middle of the thigh by blunt dissection through biceps femoris. Proximal to the sciatic trifurcation, about 5 mm of nerve was freed by inserting forceps under the nerve and the nerve gently lifted out of the thigh. The forceps were gently opened and closed several times to aid clearance of the fascia from the nerve. […]
Animals were habituated to wire test cages prior to the assessment of allodynia. Static allodynia was evaluated by application of von Frey hairs (Stoelting, Wood Dale, Ill., U.S.A.) in ascending order of force ([…], 0.4, 0.6, 1.0, 1.5 and 2.0 g) to the plantar surface of hind paws. […] The lowest amount of force required to elicit a response was recorded as paw withdrawal threshold (PWT) in grams. […]
Baseline (BL) paw withdrawal thresholds (PWT) to von Frey hairs were assessed. Following drug administration PWT were re-assessed for up to 4 h. […]

[5] = test system: α2/δ1 R217A wild type, heterozygous, and homozygous mice; experiment: Formalin foot-pad procedure (formalin-induced hyperalgesia); format: in vivo, mouse; conditions: mice with arg 217 changed to alanine versus heterozygous and wildtype; PO, 120 minutes prior to testing; FIG. 4
Description: Male α2/δ1 R217A wild type, heterozygous, and homozygous mice, weighing 1940 grams, were used for testing. Animals were maintained on a 12 hour light/dark cycle with food and water available ad libitum. Animals were food deprived overnight the day before testing. On test day, animals were acclimated to the observation chambers for approximately 60 min. The observation chambers were eight inch square boxes consisting of solid, acrylic plastic mirrors for the floor and 3 walls. The fourth wall was clear acrylic that allowed for observation. Animals were dosed PO with either vehicle or pregabalin, 120 minutes prior to testing at a dose volume 10 mL/kg. At test time, animals received a 25 μL injection of a 5% formalin solution in water in the plantar surface of the left hind foot. […] These behaviors were timed using a hand-held stopwatch and recorded at 5 min intervals. Data was analyzed by the two distinct phases of responding. Early phase responding included Minutes 0-10, and late phase responding included Minutes 1145. The total time spent licking by drug-treated animals in each phase was compared to the total time spent licking by vehicle-treated animals.
FIG. 4 depicts formalin-induced hyperalgesia in R217A mutant homozygous mice in comparison to that of heterozygous and wildtype mice.

[6] = test system: α2/δ1 R217A wild type and homozygous mice; experiment: Tail Suspension Test (TST); format: in vivo, mouse; conditions: R217A homozygous mutant versus wildtype mice; dosed 120 minutes prior to testing; FIG. 5
Description: Male α2/δ1 R217A wild type and homozygous mice, weighing 22-35 grams, were used for testing. Animals were maintained on a 12 hour light/dark cycle with food and water available ad libitum. Animals were food deprived overnight the day before testing. On test day, animals were placed by groups of 8 into holding cages to acclimate for sixty minutes prior to dosing. Vehicle or pregabalin was administered 120 minutes prior to testing at a dose volume of 10 mL/kg. At test time, a piece of transparent tape was placed around the distal portion of the tail. The tape was then attached to a hook connected to an electro-mechanical apparatus that recorded the amount of time a mouse moved and the force used during movement. The hook was located at the top of a 24×18 cm testing chamber. Animals were completely suspended in air approximately 5 cm off the floor of the chamber for six minutes. Mean time of struggling and force of movement were then calculated for each group of eight.
Animals are placed by groups of eight into holding cages to acclimate for thirty to sixty minutes prior to dosing. Treatments are generally administered 60 to 120 minutes prior to testing, although this also varies with specific compounds. At test time, a piece of scotch tape is placed around the distal portion of the tail. […]

Chain of α2/δ2 (Q9NY47 19-1150): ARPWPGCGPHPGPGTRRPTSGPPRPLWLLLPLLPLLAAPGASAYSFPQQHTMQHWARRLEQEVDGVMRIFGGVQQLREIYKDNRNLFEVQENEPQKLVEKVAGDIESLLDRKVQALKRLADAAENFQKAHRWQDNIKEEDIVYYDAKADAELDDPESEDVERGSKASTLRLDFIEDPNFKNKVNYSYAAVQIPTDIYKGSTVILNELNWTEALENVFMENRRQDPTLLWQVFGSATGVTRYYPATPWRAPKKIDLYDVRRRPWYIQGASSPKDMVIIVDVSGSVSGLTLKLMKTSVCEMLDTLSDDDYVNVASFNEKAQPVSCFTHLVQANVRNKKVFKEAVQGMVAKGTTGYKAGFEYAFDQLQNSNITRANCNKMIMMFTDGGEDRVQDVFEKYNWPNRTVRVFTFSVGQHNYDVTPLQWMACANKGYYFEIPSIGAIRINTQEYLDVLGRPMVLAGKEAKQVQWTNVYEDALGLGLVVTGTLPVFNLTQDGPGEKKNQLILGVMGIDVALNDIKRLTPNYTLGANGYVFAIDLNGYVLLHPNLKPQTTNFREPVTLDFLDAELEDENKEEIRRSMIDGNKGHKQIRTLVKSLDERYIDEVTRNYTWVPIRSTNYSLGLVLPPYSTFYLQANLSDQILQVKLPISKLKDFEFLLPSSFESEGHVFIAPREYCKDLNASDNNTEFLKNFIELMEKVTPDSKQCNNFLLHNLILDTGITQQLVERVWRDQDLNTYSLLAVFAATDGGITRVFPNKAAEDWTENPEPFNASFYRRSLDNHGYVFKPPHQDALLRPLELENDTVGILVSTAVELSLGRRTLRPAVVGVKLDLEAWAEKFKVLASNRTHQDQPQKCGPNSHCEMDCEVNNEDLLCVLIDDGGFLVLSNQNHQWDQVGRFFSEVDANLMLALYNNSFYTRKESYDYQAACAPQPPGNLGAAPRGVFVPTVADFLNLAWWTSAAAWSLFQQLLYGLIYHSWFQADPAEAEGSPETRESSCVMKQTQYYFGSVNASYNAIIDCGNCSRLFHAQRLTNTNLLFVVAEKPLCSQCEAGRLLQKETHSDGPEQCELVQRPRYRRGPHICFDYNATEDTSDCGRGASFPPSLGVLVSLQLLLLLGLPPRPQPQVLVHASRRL
Chain of α2/δ2 (Q9NY47 1002-1150 partner limits assumed): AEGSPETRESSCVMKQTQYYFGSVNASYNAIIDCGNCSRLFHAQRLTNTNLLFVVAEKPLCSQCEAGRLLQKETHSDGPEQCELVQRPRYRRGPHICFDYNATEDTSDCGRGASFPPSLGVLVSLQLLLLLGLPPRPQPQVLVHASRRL

CN1C(=O)CN=C(c2ccccc2)c2cc(Cl)ccc21 [diazepam]
anxiolytic-like effect [1]: Diazepam (+control) failed to produce an anxiolytic-like effect in R217A knockins. Data suggests 129S6-parent strain's genotype may be responsible for pharmacological profile of diazepam
responsiveness to anticonvulsant effects ([2]; FIG. 9): fully responsive

NCC1(CC(=O)O)CCCCC1 [gabapentin, 1-(aminomethyl)cyclohexaneacetic acid]
gabapentin binding to brain membranes [3]: reduced, or greatly abolished
binding affinity (α2/δ2): high affinity

O=C1NC(=O)C(c2ccccc2)(c2ccccc2)N1 [phenyloin]
responsiveness to anticonvulsant effects ([2]; FIG. 9): fully responsive

CC(C)C[C@H](CN)CC(=O)O [pregabalin]
effect on CCI-induced punctate allodynia (paw withdrawal threshold) ([4]; knock-in mice): no effect
blockade of CCI-induced punctate allodynia (paw withdrawal threshold) ([4]; wild type mice): significant blockade
efficacy in formalin-induced hyperalgesia (licking or biting of injected foot) [5]: reduced efficacy
increase @ 100 (punished responding) ([1]; Knockins, shock 0.7 mA, dose 100 (mg/kg IP)): non-significant
anxiolytic-like effect [1]: Pregabalin did not produce a significant anxiolytic-like effect in R217A knockins, and no evidence was obtained relating phenotype to particular parent strain
increase in punished licking ([1]; knock-in mice homozygous for R217A, compared to wild-type, heterozygous or back-ground strains): does not produce a statistically significant increase
sedative and/or anxiolytic effect in TST [6]: exerts its sedative and/or anxiolytic effect in TST through the α2/δ1 polypeptide
potency in protecting against seizures ([2]; mutant mice versus wild-type, heterozygous or back-ground strains): less potent
anticonvulsant effects ([2]; −/− mice as compared to +/+ mice, FIG. 9): reduced
sensitivity to effects in MES ([2]; −/− mice versus +/+ mice, FIG. 9): less sensitive
